Results from the Deep4Chem optical property database.
One block for each compound: values may come before it.

Test: solvent given as SMILES

absorption maximum (in CC#N): 351 nm
SMILES: O=c1oc2ccccc2cc1/C=C/c1ccccc1

absorption maximum (in CC#N): 536 nm
absorption maximum (in CCCCCC): 556 nm
absorption maximum (in CCOC(C)=O): 545 nm
absorption maximum (in CO): 536 nm
absorption maximum (in ClCCl): 545 nm
SMILES: CCCSC1=[N+]2C(=C(c3ccccc3)c3ccc(SCCC)n3[B-]2(F)F)C=C1SC#N

absorption maximum (in ClCCl): 432 nm
SMILES: Cc1cc(-c2ccc(N(c3ccccc3)c3ccccc3)cc2)c2nsnc2c1-c1ccc(N(c2ccccc2)c2ccccc2)cc1

absorption maximum (in ClCCl): 479 nm
SMILES: Cc1cc(C)c(C2=C3C=C(/C=C/C(=O)OC(C)(C)C)C=[N+]3[B-](F)(F)n3c2ccc3N2CCCC2)c(C)c1

absorption maximum (in ClCCl): 499 nm
SMILES: CCCN1c2ccccc2Sc2cc(C3=C4C=CC=[N+]4[B-](F)(F)n4cccc43)ccc21

absorption maximum (in CCO): 443 nm
SMILES: CNc1cc2nc3cc(Br)c(Br)cc3nc2cc1NC

absorption maximum (in C1CCOC1): 382 nm
SMILES: CCC1(CC)c2ccccc2-c2c1c1c(c3c2C(CC)(CC)c2cc(/C=C/c4cccs4)ccc2-3)C(CC)(CC)c2cc(/C=C/c3cccs3)ccc2-1

absorption maximum (in CC#N): 380 nm
absorption maximum (in ClCCl): 384 nm
SMILES: COc1ccc(/C=C/C(=O)c2c(O)cc(C)oc2=O)cc1

absorption maximum (in C1CCCCC1): 400 nm
SMILES: CC(C)c1cc(C(C)C)c(B2c3cc(-n4c5ccccc5c5ccccc54)ccc3N(c3ccccc3)c3ccc(-n4c5ccccc5c5ccccc54)cc32)c(C(C)C)c1

absorption maximum (in ClC(Cl)Cl): 329 nm
SMILES: COc1cc(-c2cc(-c3ccccc3)c(-c3ccccc3)c(-c3ccccc3)c2-c2ccccc2)c(OC)cc1-c1ccc(N(C)C)cc1

absorption maximum (in CCCCCC): 450 nm
SMILES: CC(C)[Si](C#Cc1c2nc3c(nc2c(C#C[Si](C(C)C)(C(C)C)C(C)C)c2nc4c(nc12)C1c2ccccc2C4c2ccccc21)C1c2ccccc2C3c2ccccc21)(C(C)C)C(C)C

absorption maximum (in CC#N): 317 nm
SMILES: c1ccc(-c2nc(-c3cccs3)[nH]c2-c2ccccc2)cc1

absorption maximum (in ClCCl): 704 nm
SMILES: COc1c2ccccc2c(OC)c2c(C#Cc3ccccc3)c3cc4ccccc4cc3c(C#Cc3ccccc3)c12

absorption maximum (in C1CCOC1): 346 nm
SMILES: COc1ccc(-c2cc3oc(=O)cc(C)c3cc2-c2ccc(OC)c(OC)c2)cc1OC

absorption maximum (in ClCCl): 568 nm
SMILES: F[B-]1(F)n2c(c(-c3ccccc3)c3ccccc32)C(c2ccccc2)=C2C(c3ccccc3)=c3ccccc3=[N+]21

absorption maximum (in ClC(Cl)Cl): 652 nm
SMILES: Cc1ccc(C2=CC(c3ccc(C)cc3)=[N+]3C2=Nc2c(-c4ccc(C)cc4)cc(-c4ccc(C)cc4)n2[B-]3(F)F)cc1

absorption maximum (in ClCCl): 350 nm
SMILES: COc1ccc(C2=Cc3ccccc3[Si]2(c2ccccc2)c2ccccc2)cc1

absorption maximum (in ClCCl): 465 nm
SMILES: COCCOCCOCCOCC(COCCOCCOCCOC)Oc1cc(/C=C/c2ccc(C=C(C#N)C#N)cc2)c(OC(COCCOCCOCCOC)COCCOCCOCCOC)cc1/C=C/c1ccc(C=C(C#N)C#N)cc1

absorption maximum (in O): 305 nm
SMILES: CCn1c(-c2ccc(-c3ccc(-c4ccc(-c5n(CC)c6ccccc6[n+]5CC)cc4)cc3)cc2)[n+](CC)c2ccccc21

absorption maximum (in ClCCl): 347 nm
SMILES: O=[N+]([O-])c1ccc(C#Cc2ccc3ccc(C#Cc4ccc([N+](=O)[O-])cc4)cc3c2)cc1

absorption maximum (in ClCCl): 470 nm
SMILES: O=C(c1ccc2c3c(cccc13)-c1cccc3c1C2CC=C3)c1c(CCc2ccccc2)c2ccc3cccc4c5cccc6ccc1c(c65)c2c34 (stereo not given)

absorption maximum (in CCCCCC): 693 nm
absorption maximum (in ClCCl): 697 nm
SMILES: CC(C)[Si](C#Cc1c2cc3ccccc3cc2c(C#C[Si](C(C)C)(C(C)C)C(C)C)c2nc3ccccc3nc12)(C(C)C)C(C)C

absorption maximum (in ClCCl): 335 nm
SMILES: Cc1ccc(C(=O)NC(C)(C)C)c2c1ccc1c3ccccc3c3ccccc3c12

absorption maximum (in ClCCl): 374 nm
SMILES: CCOC(=O)/N=c1/oc2c(OC)cccc2cc1C#N

absorption maximum (in ClC(Cl)Cl): 483 nm
SMILES: COc1ccc(N(c2ccc(OC)cc2)c2ccc(-c3ccc(C=C(C#N)C#N)cc3)cc2)cc1

absorption maximum (in CCO): 580 nm
absorption maximum (in O): 590 nm
SMILES: CC/[NH+]=c1\cc2oc3cc(NCCC(=O)NC(C(=O)OC)c4ccccc4)c4ccccc4c3nc-2cc1C (stereo not given)

absorption maximum (in ClCCl): 539 nm
SMILES: COc1cccc(C2=C3C=C(/C=C/C(=O)OC(C)(C)C)C=[N+]3[B-](F)(F)n3cccc32)c1

absorption maximum (in ClCCl): 522 nm
SMILES: C(#Cc1c2ccccc2c(-c2ccccc2)c2cc3ccccc3cc12)c1ccccc1

absorption maximum (in ClCCl): 415 nm
SMILES: C(=C\c1cc(-c2ccccc2)c(/C=C/c2ccc(N(c3ccccc3)c3ccccc3)cc2)cc1-c1ccccc1)/c1ccc(N(c2ccccc2)c2ccccc2)cc1

Continued, compound first:

SMILES: COc1ccc(/C=C/c2nc3ccccc3o2)cc1
absorption maximum (in C1CCCCC1): 330 nm
absorption maximum (in CO): 340 nm

SMILES: O=C1c2ccccc2C2=Cc3ccc4ccccc4[n+]3[B-](F)(F)N12
absorption maximum (in CCO): 450 nm
absorption maximum (in Cc1ccccc1): 458 nm
absorption maximum (in ClCCl): 454 nm

SMILES: C1=Cc2ccccc2C(=Cc2ccc(C=C3c4ccccc4C=Cc4ccccc43)cc2)c2ccccc21
absorption maximum (in C1CCOC1): 333 nm

SMILES: CCCCCCOc1cc2[nH]c(cc2CCOC)c2nc(ccc3[nH]c(cc3CCOC)c3nc1C(CCOC)=C3)C(CCOC)=C2
absorption maximum (in Cc1ccccc1): 684 nm

SMILES: CCCCCCCCC1(CCCCCCCC)c2cc(-c3ccc([N+](=O)[O-])cc3)ccc2-c2ccc(-c3ccc([N+](=O)[O-])cc3)cc21
absorption maximum (in C1CCCCC1): 357 nm
absorption maximum (in CCO): 368 nm
absorption maximum (in CN(C)C=O): 380 nm
absorption maximum (in CS(C)=O): 382 nm
absorption maximum (in Cc1ccccc1): 365 nm
absorption maximum (in ClC(Cl)Cl): 373 nm

SMILES: COc1ccc(-c2cc3c(s2)c(C(C)=O)cc(=O)n3Cc2ccccc2)cc1
absorption maximum (in CC#N): 420 nm
absorption maximum (in ClCCl): 426 nm

SMILES: CCOC(=O)CN1C(=O)C2=C(c3ccccc3)N(CC(=O)OCC)C(=O)C2=C1c1ccccc1
absorption maximum (in CC#N): 454 nm
absorption maximum (in CS(C)=O): 460 nm
absorption maximum (in Cc1ccccc1): 462 nm

SMILES: COc1ccc(-c2c3ccc([nH]3)c3nc(c(-c4ccc([N+](=O)[O-])cc4)c4ccc([nH]4)c4ccc([nH]4)c(-c4ccc(OC)cc4)c4ccc2o4)C=C3)cc1
absorption maximum (in C1CCOC1): 446 nm
absorption maximum (in Cc1ccccc1): 448 nm
absorption maximum (in c1ccccc1): 448 nm

SMILES: CCCCCCn1c2cc(/C=C(\C#N)c3cccs3)ccc2c2ccc(/C=C(\C#N)c3cccs3)cc21
absorption maximum (in ClC(Cl)Cl): 436.68 nm

SMILES: O=c1oc2ccccc2c2c1c(=O)oc1cc(O)c3ccccc3c12
absorption maximum (in CS(C)=O): 441 nm
absorption maximum (in ClCCl): 442 nm

SMILES: CCCCCCCCCCCCOc1cc2c(cc1OCCCCCCCCCCCC)C1=C3C(=O)N4C=Cc5cc(OCCCCCCCCCCCC)c(OCCCCCCCCCCCC)cc5C4=C3C(=O)N1C=C2
absorption maximum (in CN(C)C=O): 592 nm
absorption maximum (in ClC(Cl)Cl): 590 nm

SMILES: O=c1c2cc(F)c(O)cc2oc2cc(O)c(F)cc12
absorption maximum (in CCO): 369 nm

SMILES: Cn1c2ccccc2c(=O)c2ccccc21
absorption maximum (in CS(C)=O): 403 nm
absorption maximum (in O): 394 nm

SMILES: c1ccc(-c2nc(-c3ccccc3)nc(-c3ccc(-n4c5ccccc5c5cc(-n6c7ccccc7c7ccccc76)ccc54)cc3)n2)cc1
absorption maximum (in Cc1ccccc1): 367 nm

SMILES: CC(C)(C)C1CCC(=CS/C=C/c2ccc(-c3ccc(/C=C/SC=C4CCC(C(C)(C)C)CC4)cc3)cc2)CC1 (stereo not given)
absorption maximum (in ClCCl): 350 nm

SMILES: Oc1ccc(/N=C/c2ccccc2Oc2ccccc2)cc1
absorption maximum (in C1CCCCC1): 348 nm
absorption maximum (in C1COCCO1): 341 nm
absorption maximum (in CC#N): 350 nm
absorption maximum (in CC(C)=O): 342 nm
absorption maximum (in CC(C)CO): 344 nm
absorption maximum (in CC(C)O): 344 nm
absorption maximum (in CCCCC): 341 nm
absorption maximum (in CCCCCC): 346 nm
absorption maximum (in CCCCO): 346 nm
absorption maximum (in CCCCOC(C)=O): 346 nm
absorption maximum (in CCCO): 345 nm
absorption maximum (in CCOC(C)=O): 340 nm
absorption maximum (in CCOCC): 345 nm
absorption maximum (in CN(C)C=O): 345 nm
absorption maximum (in CO): 342 nm
absorption maximum (in CS(C)=O): 348 nm
absorption maximum (in Cc1ccccc1): 342 nm
absorption maximum (in Cc1ccccc1C): 382 nm
absorption maximum (in ClC(Cl)Cl): 343 nm
absorption maximum (in N#Cc1ccccc1): 341 nm
absorption maximum (in c1ccccc1): 345 nm

SMILES: CN(C)c1ccc(/C=C/c2nc3ccccc3s2)cc1
absorption maximum (in C1CCCCC1): 384 nm
absorption maximum (in C1CCOC1): 396 nm
absorption maximum (in C1COCCO1): 393 nm
absorption maximum (in CC#N): 401 nm
absorption maximum (in CC(C)O): 394 nm
absorption maximum (in CCCCCC): 384 nm
absorption maximum (in CCCCCCC): 387 nm
absorption maximum (in CCO): 396 nm
absorption maximum (in CCOC(C)=O): 391 nm
absorption maximum (in CCOCC): 390 nm
absorption maximum (in CN(C)C=O): 402 nm
absorption maximum (in CO): 397 nm
absorption maximum (in CS(C)=O): 405 nm
absorption maximum (in O): 402 nm
absorption maximum (in OCC(O)CO): 409 nm

SMILES: N#Cc1cc2ccc(O)cc2oc1=O
absorption maximum (in C1CCCCC1): 361 nm
absorption maximum (in C1CCOC1): 355 nm
absorption maximum (in CC#N): 352 nm
absorption maximum (in CCOC(C)=O): 356 nm
absorption maximum (in CS(C)=O): 351 nm
absorption maximum (in ClC(Cl)Cl): 359 nm
absorption maximum (in O): 355 nm

SMILES: c1ccc(-c2cc(-c3ccc(-c4nc(-c5ccccn5)c(-c5ccccn5)[nH]4)cc3)cc(-c3ccccn3)n2)nc1
absorption maximum (in C1CCOC1): 371 nm
absorption maximum (in CC#N): 380 nm
absorption maximum (in CC(C)=O): 381 nm
absorption maximum (in CCO): 326 nm
absorption maximum (in CCOC(C)=O): 360 nm
absorption maximum (in CN(C)C=O): 337 nm
absorption maximum (in CO): 321 nm
absorption maximum (in CS(C)=O): 338 nm
absorption maximum (in ClC(Cl)Cl): 408 nm
absorption maximum (in ClCCl): 388 nm

SMILES: c1cc2c3c(c1)ccc1[n+]3[B-]3(Oc4cccc5ccc6[n+](c45)[B-](O2)(O3)n2c-6cc3c4ccccc4c4ccccc4c32)n2c-1cc1c3ccccc3c3ccccc3c12
absorption maximum (in ClCCl): 472 nm

SMILES: O=C1/C(=C\c2ccc3oc4ccccc4c3c2)S(=O)(=O)c2ccccc21
absorption maximum (in C1CCOC1): 368 nm
absorption maximum (in C1COCCO1): 369 nm
absorption maximum (in CC#N): 365 nm
absorption maximum (in CC(C)=O): 365 nm
absorption maximum (in CCOC(C)=O): 366 nm
absorption maximum (in CN(C)C=O): 367 nm
absorption maximum (in CO): 367 nm
absorption maximum (in CS(C)=O): 369 nm
absorption maximum (in Cc1ccccc1): 373 nm
absorption maximum (in ClC(Cl)Cl): 378 nm
absorption maximum (in ClCCl): 372 nm

SMILES: Cc1cc(C)c(B(c2ccc(N(c3ccccc3)c3ccccc3)cc2)c2c(C)cc(C)cc2C)c(C)c1
absorption maximum (in Cc1ccccc1): 380 nm

SMILES: Cn1c(=O)cc(C(=O)c2ccccc2)c2sc(-c3ccc(N(c4ccccc4)c4ccccc4)cc3)cc21
absorption maximum (in CC#N): 430 nm
absorption maximum (in ClCCl): 438 nm
